{"source": "paper PMC6222927", "about": "“Aminobenzosuberone Scaffold as a Modular Chemical Tool for the Inhibition of Therapeutically Relevant M1 Aminopeptidases” (Molecules : A Journal of Synthetic Chemistry and Natural …, 2018)", "key": {"P. falciparum rPfAM1": {"target": "T1, P. falciparum rPfAM1 (Plasmodium falciparum, UniProt O96935)", "T1 construct": "made in house; host or cells: Escherichia coli Rosetta 2 (DE3)", "T1 sequence (O96935 1-1085)": "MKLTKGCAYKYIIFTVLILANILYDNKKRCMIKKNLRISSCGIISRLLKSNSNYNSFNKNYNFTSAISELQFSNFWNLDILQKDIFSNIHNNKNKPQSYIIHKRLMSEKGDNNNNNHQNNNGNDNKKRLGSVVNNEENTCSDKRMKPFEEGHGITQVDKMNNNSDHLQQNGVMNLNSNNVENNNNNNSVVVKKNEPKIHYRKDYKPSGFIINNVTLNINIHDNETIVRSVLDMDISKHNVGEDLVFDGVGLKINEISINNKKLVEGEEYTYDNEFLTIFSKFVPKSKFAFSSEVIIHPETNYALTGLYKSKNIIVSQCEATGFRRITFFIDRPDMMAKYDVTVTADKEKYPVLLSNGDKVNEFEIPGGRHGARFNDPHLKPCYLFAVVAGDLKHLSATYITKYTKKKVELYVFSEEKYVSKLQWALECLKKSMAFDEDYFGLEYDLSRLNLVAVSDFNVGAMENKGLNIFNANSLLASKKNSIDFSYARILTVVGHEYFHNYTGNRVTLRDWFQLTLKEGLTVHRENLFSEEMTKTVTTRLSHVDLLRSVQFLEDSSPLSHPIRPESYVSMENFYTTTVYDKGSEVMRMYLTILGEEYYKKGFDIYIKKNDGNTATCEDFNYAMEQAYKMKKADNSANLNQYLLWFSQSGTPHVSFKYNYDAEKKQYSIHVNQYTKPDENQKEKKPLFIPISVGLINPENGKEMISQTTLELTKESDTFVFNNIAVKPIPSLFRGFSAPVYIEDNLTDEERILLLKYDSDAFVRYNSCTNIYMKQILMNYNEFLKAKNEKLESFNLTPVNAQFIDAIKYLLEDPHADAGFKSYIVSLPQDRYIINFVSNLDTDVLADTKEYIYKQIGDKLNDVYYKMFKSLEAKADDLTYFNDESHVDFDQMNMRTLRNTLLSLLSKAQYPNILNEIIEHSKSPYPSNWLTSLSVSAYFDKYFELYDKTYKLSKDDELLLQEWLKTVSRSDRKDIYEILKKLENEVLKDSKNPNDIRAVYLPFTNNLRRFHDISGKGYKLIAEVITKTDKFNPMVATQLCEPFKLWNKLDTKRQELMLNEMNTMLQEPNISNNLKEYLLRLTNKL", "assay": "biochemical", "type": "biochemical", "method": "Initial velocities were measured with increasing concentrations of inhibitors and Ki values were determined by Dixon plots in triplicate."}, "E. coli rEcPepN": {"target": "E. coli rEcPepN (Escherichia coli, UniProt P04825)", "sequence (P04825 whole entry)": "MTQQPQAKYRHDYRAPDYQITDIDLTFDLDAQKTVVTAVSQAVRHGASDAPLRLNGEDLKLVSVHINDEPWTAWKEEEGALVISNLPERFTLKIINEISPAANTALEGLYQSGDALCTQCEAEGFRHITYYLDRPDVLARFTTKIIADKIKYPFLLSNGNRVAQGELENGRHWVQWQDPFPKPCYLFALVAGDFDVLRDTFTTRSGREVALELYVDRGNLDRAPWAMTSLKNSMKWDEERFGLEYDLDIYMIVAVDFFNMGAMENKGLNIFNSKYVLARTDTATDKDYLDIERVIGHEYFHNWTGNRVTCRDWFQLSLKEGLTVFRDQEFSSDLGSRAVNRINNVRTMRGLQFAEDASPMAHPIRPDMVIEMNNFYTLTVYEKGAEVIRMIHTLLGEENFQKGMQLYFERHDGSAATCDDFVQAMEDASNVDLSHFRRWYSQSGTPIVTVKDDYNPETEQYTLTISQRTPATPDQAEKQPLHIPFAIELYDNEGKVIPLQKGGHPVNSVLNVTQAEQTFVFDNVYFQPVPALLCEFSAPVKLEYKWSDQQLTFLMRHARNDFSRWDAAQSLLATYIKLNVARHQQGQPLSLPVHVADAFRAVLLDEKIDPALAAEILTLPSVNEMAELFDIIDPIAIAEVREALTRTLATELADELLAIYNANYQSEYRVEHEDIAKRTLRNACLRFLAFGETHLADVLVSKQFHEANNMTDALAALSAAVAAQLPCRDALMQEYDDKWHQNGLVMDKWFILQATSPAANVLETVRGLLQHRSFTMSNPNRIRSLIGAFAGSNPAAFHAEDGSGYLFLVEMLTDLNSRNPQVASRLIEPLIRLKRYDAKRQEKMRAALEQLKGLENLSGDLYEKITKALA", "assay": "rEcPepN inhibition, Leu-pNA substrate, Dixon method", "type": "biochemical", "method": "Enzyme activity assays were carried out in 10 mM Tris-HCl buffer at pH 7.5 with 150 mM NaCl, enzyme, 100 µM substrate (Leu-pNA) in a 100 μL reaction at 37 °C. The absorbance was read at 405 nm. Concentrations ranging from 1 nM to 100 μM of inhibitors (dissolved in DMSO) were incubated with each of the enzymes ([…]) for 30 min at 37 °C in a 96 well plate. After addition of the substrate, immediate increase in absorption was measured. All inhibition assays were performed in triplicates and initial velocities were measured. Percentage inhibition and log values of inhibitor concentrations were plotted using SigmaPlot to determine IC50 values. Ki values were determined by the Dixon method. The assay consists of reaction buffer, enzyme and varied concentrations of Leu-pNA (25, 50, 100, 200 and 400 µM). […] Data were plotted as 1/rate versus inhibitor concentration for each substrate concentration and a linear fit was calculated by non-linear regression using SigmaPlot12.5. All the reactions were performed in triplicates, SD values were reported."}, "[1]": {"target": "T2, human endoplasmic reticulum aminopeptidase 1 (rHsERAP1) (Homo sapiens, UniProt Q9NZ08)", "T2 construct": "made in house; host or cells: Hi5 insect cells (baculovirus produced in sf9)", "T2 sequence (Q9NZ08 whole entry)": "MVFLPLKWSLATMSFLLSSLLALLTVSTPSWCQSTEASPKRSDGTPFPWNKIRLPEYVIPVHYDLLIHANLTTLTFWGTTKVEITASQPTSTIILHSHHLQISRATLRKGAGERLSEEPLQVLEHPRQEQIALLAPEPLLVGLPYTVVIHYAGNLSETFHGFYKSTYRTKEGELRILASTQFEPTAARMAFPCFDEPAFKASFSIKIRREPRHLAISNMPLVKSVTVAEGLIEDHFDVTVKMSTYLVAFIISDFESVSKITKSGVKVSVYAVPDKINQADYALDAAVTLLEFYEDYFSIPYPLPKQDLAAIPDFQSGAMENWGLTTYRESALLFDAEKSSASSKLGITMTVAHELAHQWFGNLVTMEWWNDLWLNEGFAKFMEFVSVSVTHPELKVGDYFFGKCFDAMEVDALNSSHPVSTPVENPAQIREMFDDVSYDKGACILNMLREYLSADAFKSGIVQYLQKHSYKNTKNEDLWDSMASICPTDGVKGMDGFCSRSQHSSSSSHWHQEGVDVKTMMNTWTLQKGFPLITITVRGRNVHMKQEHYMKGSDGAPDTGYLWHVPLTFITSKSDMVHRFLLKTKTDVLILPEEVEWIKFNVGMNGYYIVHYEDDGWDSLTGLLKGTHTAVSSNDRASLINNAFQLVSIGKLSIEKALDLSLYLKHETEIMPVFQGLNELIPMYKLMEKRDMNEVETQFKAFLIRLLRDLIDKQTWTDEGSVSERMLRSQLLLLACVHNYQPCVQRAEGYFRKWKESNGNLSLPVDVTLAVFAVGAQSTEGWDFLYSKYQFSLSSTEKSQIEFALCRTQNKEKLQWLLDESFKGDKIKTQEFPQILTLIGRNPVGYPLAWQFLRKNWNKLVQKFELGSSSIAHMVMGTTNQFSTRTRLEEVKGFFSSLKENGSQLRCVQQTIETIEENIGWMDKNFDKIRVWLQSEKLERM", "assay": "rHsERAP1 inhibition, L-AMC fluorigenic substrate", "type": "biochemical", "conditions": "50 µM L-AMC", "method": "The enzymatic activity of HsERAP1, HsERAP2 and HsIRAP was determined by following the time-dependent increase in fluorescence at 460 nm (excitation: 380 nm) of the fluorigenic substrates L-Leucine-7-amido-4-methyl coumarin (L-AMC; Sigma, Darmstatd, Germany) for HsERAP1 and HsIRAP and L-arginyl-7-amido-4-methyl coumarin (R-AMC; Sigma) for HsERAP2. […] The reaction was followed for 10 min at room temperature and the remaining enzymatic activity was calculated by measuring the slope of the time course."}, "P. falciparum rPfAM17": {"target": "T3, P. falciparum rPfAM17 (Plasmodium falciparum, UniProt Q8IL11)", "T3 construct": "made in house; host or cells: Escherichia coli Rosetta 2 (DE3)", "T3 sequence (Q8IL11 1-605)": "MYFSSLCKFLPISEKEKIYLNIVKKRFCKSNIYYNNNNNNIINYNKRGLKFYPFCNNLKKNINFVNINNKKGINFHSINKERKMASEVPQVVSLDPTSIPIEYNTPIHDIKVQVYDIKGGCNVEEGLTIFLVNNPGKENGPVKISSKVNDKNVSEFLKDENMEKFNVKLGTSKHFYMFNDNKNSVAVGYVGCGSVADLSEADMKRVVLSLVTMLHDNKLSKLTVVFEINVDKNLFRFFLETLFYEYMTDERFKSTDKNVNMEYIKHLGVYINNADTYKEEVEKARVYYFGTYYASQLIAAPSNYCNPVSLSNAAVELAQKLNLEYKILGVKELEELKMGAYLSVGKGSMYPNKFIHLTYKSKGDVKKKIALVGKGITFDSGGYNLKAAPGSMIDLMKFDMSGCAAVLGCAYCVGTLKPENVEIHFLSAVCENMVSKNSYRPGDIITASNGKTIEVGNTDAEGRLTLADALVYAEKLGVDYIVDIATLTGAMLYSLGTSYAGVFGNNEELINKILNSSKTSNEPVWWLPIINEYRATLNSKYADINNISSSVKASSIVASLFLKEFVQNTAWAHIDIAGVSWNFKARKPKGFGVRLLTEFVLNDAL", "assay": "rPfAM17 inhibition, Leu-pNA substrate, Dixon plots", "type": "biochemical", "method": "Tests were carried out on HP/Agilent UV-Visible diode array spectrophotometer 8453 (HP/Agilent, Santa Clara, CA, USA), at 30 °C in Tris HCl 50 mM pH 7.4 for rPfAM1 and pH 8 for rPfAM17, with a final DMSO concentration of 1%. […]. […] Initial velocities were measured with increasing concentrations of inhibitors and Ki values were determined by Dixon plots in triplicate."}, "pAPN from porcine kidney": {"target": "pAPN from porcine kidney", "conditions": "Dixon plots; cited from earlier work"}}, "data": [{"smiles": "NC1CCc2c(Br)cccc2CC1=O", "note": "(centres unmarked) [21e]", "values": [{"measurement": "Ki", "setting": "P. falciparum rPfAM1", "result": "1 ± 0.04", "unit": "µM"}, {"measurement": "Ki", "setting": "E. coli rEcPepN", "result": "4.59 ± 0.17", "unit": "µM"}, {"measurement": "IC50", "setting": "[1]", "result": "56 ± 7", "unit": "µM"}, {"measurement": "Ki", "setting": "P. falciparum rPfAM17", "result": "> 100", "unit": "µM"}, {"measurement": "Ki", "setting": "pAPN from porcine kidney", "result": 0.02, "unit": "µM"}]}]}
